Assay results reported in article PMC7551771, “In-Depth In Silico Search for Cuttlefish (Sepia officinalis) Antimicrobial Peptides Following Bacterial Challenge of Haemocytes” (Marine Drugs, 2020).
Read-outs that look alike come from different tables or passages of the source. No end group written: not given here.

How the values were obtained:
[1] = tested on: V. splendidus (CIP 107715); assay: microbe, parasite or virus in culture; assay type: cell-based, Vibrio splendidus
Procedure: (§1) The minimal growth inhibitory concentrations (MICs) of synthetic peptides (Genecust) were evaluated on Vibrio alginolyticus (CIP 109819), V. splendidus (CIP 107715), V. aestuerianus (CIP 102971), V. anguillarum (CIP 64.14), V. parahaemolyticus (CIP 73.30), Halomonas aquamarina (CIP 105454T), Escherichia coli (CIP 54.8T), Aeromonas salmonicida (CIP 103209T), Enteroccocus faecalis (CIP 76.117) and Lactococcus garvieae (CIP 104369) obtained from the “Collection de l’Institut Pasteur”. Bacteria were cultured in adapted media: Homemade marine broth (HMB, sea salts 20 g/L, peptone 5 g/L, yeast extract 3 g/L) for Vibrio species and H. aquamarina; Luria-Bertani (peptone 10 g/L, yeast extract 5 g/L, NaCl 10 g/L) for E. faecalis and E. coli; Trypticasein Soy Broth (TSB, Conda, 40 g/L) for A. salmonicida, and Brain Heart Infusion (BHI) (Conda, 37 g/L) for L. garvieae. MICs were determined in triplicate by liquid growth inhibition assays adapted from Hetru and Bulet. Briefly, 10 µL of peptide solution were incubated in Bioscreen honeycomb-well plates with 90 µl of bacterial suspension at a starting OD600 of 0.001 in BHI for L. garvieae, poor broth (peptone 10 g/L, NaCl 5 g/L) for E. faecalis and E. coli, TSB for A. salmonicida, HMB for H. aquamarina and saline poor broth (peptone 10 g/L, NaCl 15 g/L) for Vibrio species. Bacterial growth was monitored for 16 h by measuring OD600 values every 5 min (Bioscreen C, Labsystem, Finland). The peptides were tested alone at concentrations of 5 µM, 10 µM, 20 µM and 50 µM. For synergy, peptides pairs were tested at concentrations of 5 µM, 10 µM and 20 µM. Oxytetracycline at 5 µM and 10 µM was used as a positive control, and water was used as a blank. MICs were expressed in µM as an [a]–[b] concentration interval where [a] was the last concentration with bacterial growth and [b] was the first concentration with 100% bacterial growth inhibition. MBCs (minimal bactericidal concentrations) were expressed in µM as an [a]–[b] concentration interval where [a] was the last concentration with bacterial growth and [b] was the first concentration that killed 100% of the bacteria.

[2] = tested on: Halomonas aquamarina (CIP 105454T); assay: Liquid growth inhibition assay (MIC/MBC); assay type: cell-based; conditions: Vreelandella aquamarina; HMB, starting OD600 0.001, 16 h, triplicate; interval [a]-[b]; '-' = not active
Procedure: as §1

[3] = tested on: Aeromonas salmonicida (CIP 103209T); assay: Liquid growth inhibition assay (MIC/MBC); assay type: cell-based; conditions: TSB, triplicate, interval [a]-[b], '-' = not active
Procedure: as §1

[4] = tested on: Lactococcus garvieae (CIP 104369); assay: Liquid growth inhibition assay (MIC/MBC); assay type: cell-based; conditions: CIP104369, BHI, triplicate, interval [a]-[b], '-' = not active
Procedure: as §1

[5] = tested on: Enteroccocus faecalis (CIP 76.117); assay: Liquid growth inhibition assay (MIC/MBC); assay type: cell-based; conditions: Enterococcus faecalis, CIP76, poor broth, triplicate, interval [a]-[b], '-' = not active
Procedure: as §1

[6] = tested on: V. anguillarum (CIP 64.14); assay: microbe, parasite or virus in culture; assay type: cell-based, Vibrio anguillarum
Procedure: as §1

[7] = tested on: V. aestuerianus (CIP 102971); assay: microbe, parasite or virus in culture; assay type: cell-based, Vibrio aestueranius; conditions: for MBC: read-out: MBC Vibrio aestueranius
Procedure: as §1

[8] = tested on: V. parahaemolyticus (CIP 73.30); assay: microbe, parasite or virus in culture; assay type: cell-based, Vibrio parahaemolyticus; conditions: for MIC: read-out: MIC Vibrio parahaemo-lyticus
Procedure: as §1

[9] = tested on: Escherichia coli (CIP 54.8T); assay: microbe, parasite or virus in culture; assay type: cell-based
Procedure: as §1

[10] = tested on: Vibrio alginolyticus (CIP 109819); assay: microbe, parasite or virus in culture; assay type: cell-based
Procedure: as §1

human red blood cells = assay type: cell-based
Procedure: The haemolytic activity of the synthetic peptides was determined in triplicate on human red blood cells (RBCs) as described by Duval and collaborators. Briefly, RBCs were pelleted and washed three times in phosphate-buffered saline (PBS). Then, they were resuspended in PBS to obtain a 1% solution of RBC. Ten microliters of peptide solution were incubated with 90 µL of the RBC 1% solution for 1 h at 37 °C. The peptides were diluted in PBS and tested at different concentrations: 5 µM, 20 µM, 50 µM and 100 µM. Haemolytic activity was determined by measuring the OD at 415 nm. Zero haemolysis and total (100%) haemolysis were determined with PBS and 1% Triton X-100 solutions, respectively.

CN(C)[C@@H]1C(O)=C(C(N)=O)C(=O)[C@@]2(O)C(O)=C3C(=O)c4c(O)cccc4[C@@](C)(O)[C@H]3[C@H](O)[C@@H]12 [Ox, Oxytetracycline]
MIC ([1]; Vibrio splendidus, CIP107715, saline poor broth, starting OD600 0.001, 16 h, triplicate, interval [a]-[b], '-' = not active): ≤ 5 µM
MBC ([1]; Vibrio splendidus, CIP107715, saline poor broth, triplicate, interval [a]-[b], '-' = not active): ≤ 5 µM
MIC ([1]; saline poor broth, starting OD600 0.001, 16 h, triplicate, interval [a]-[b], '-' = not active, read-out: MIC Vibrio splendidus): ≤5 µM
MIC [2]: > 10 µM
MIC ([3]; starting OD600 0.001, 16 h): ≤ 5 µM
MBC [3]: ≤ 5 µM
MIC ([4]; starting OD600 0.001, 16 h): ≤ 5 µM
MBC [4]: > 10 µM
MIC ([5]; starting OD600 0.001, 16 h): ≤ 5 µM
MBC [5]: 5 to 10 µM
MIC ([6]; Vibrio anguillarum, CIP64, saline poor broth, starting OD600 0.001, 16 h, triplicate, interval [a]-[b], '-' = not active): ≤ 5 µM
MBC ([6]; Vibrio anguillarum, CIP64, saline poor broth, triplicate, interval [a]-[b], '-' = not active): ≤ 5 µM
MIC ([7]; Vibrio, CIP102971, saline poor broth, starting OD600 0.001, 16 h, triplicate, interval [a]-[b], '-' = not active, read-out: MIC Vibrio aestueranius): ≤ 5 µM
MBC ([7]; Vibrio, CIP102971, saline poor broth, triplicate, interval [a]-[b], '-' = not active): ≤ 5 µM
MIC ([8]; Vibrio parahaemolyticus, CIP73, saline poor broth, starting OD600 0.001, 16 h, triplicate, interval [a]-[b], '-' = not active): ≤ 5 µM
MBC ([8]; Vibrio parahaemolyticus, CIP73, saline poor broth, triplicate, interval [a]-[b], '-' = not active, read-out: MBC Vibrio parahaemo-lyticus): ≤ 5 µM
MIC ([8]; saline poor broth, starting OD600 0.001, 16 h, triplicate, interval [a]-[b], '-' = not active): ≤5 µM
MIC ([9]; Escherichia coli, CIP54, poor broth, starting OD600 0.001, 16 h, triplicate, interval [a]-[b], '-' = not active): ≤ 5 µM
MBC ([9]; Escherichia coli, CIP54, poor broth, triplicate, interval [a]-[b], '-' = not active): ≤ 5 µM
MIC ([10]; Vibrio alginolyticus, CIP109819, saline poor broth, starting OD600 0.001, growth monitored 16 h, triplicate, interval [a]-[b], b = first concentration with 100% growth inhibition, peptides 5-50 µM, pairs 5-20 µM, oxytetracycline 5 and 10 µM, '-' = not active): ≤ 5 µM
MBC ([10]; Vibrio alginolyticus, CIP109819, saline poor broth, triplicate, interval [a]-[b], b = first concentration that killed 100% of the bacteria, '-' = not active): ≤ 5 µM
MIC ([10]; saline poor broth, starting OD600 0.001, growth monitored 16 h, triplicate, interval [a]-[b], b = first concentration with 100% growth inhibition, peptides 5-50 µM, pairs 5-20 µM, oxytetracycline 5 and 10 µM, '-' = not active): ≤5 µM

ASSFLTPRLSSLGKRSWAV [AV19]
MBC Vibrio splendidus ([1]; CIP 107715, 16 h): 10 to 20 µM
MIC Vibrio splendidus ([1]; CIP 107715, 16 h): 10 to 20 µM
MBC Vibrio parahaemo-lyticus ([8]; CIP 73, 16 h): 20 to 50 µM
MIC Vibrio parahaemo-lyticus ([8]; CIP 73, 16 h): 10 to 20 µM
concentrations at which haemolytic (human red blood cells): 50 to 100 µM

GFCNFMHLKPISRELRRELYGRTRRRRK [GK28]
MBC ([1]; CIP 107715, 16 h, read-out: MBC Vibrio splendidus): ≤5 µM
MIC ([1]; CIP 107715, 16 h, read-out: MIC Vibrio splendidus): ≤5 µM
MBC Vibrio anguillarum ([6]; CIP 64, 16 h): 20 to 50 µM
MIC Vibrio anguillarum ([6]; CIP 64, 16 h): 10 to 20 µM
MIC Vibrio aestueranius ([7]; CIP 102971, 16 h): 10 to 20 µM
MBC ([7]; CIP 102971, 16 h): >50 µM
MBC Vibrio parahaemo-lyticus ([8]; CIP 73, 16 h): 10 to 20 µM
MIC ([8]; CIP 73, 16 h): ≤5 µM
MBC Escherichia coli ([9]; CIP 54, 16 h): 20 to 50 µM
MIC ([9]; CIP 54, 16 h): ≤5 µM
MIC ([10]; CIP 109819, 16 h): ≤5 µM
MBC Vibrio alginolyticus ([10]; saline poor broth, triplicate, interval [a]-[b], b = first concentration that killed 100% of the bacteria, '-' = not active): 20 to 50 µM

NYWLLVLRRLLITKKVMWF [NF19]
MBC Vibrio splendidus ([1]; CIP 107715, 16 h): 10 to 20 µM
MIC Vibrio splendidus ([1]; CIP 107715, 16 h): 5 to 10 µM
concentrations at which haemolytic (human red blood cells): 50 to 100 µM
